Patent publication US20180303878A1, “TREATMENT FOR INFECTION COMPOSED OF MENSTRUAL STEM CELLS” (CELLS FOR CELLS, S.P.A., priority 2015, published 2018)

Columns and labels:
Type in all cases: in vivo, C57BL6/j mice
CLP-induced sepsis [1] = experiment: Survival in polymicrobial CLP-induced sepsis (Kaplan-Meier); conditions: 96 hours after treatment; treatment 3 hours after CLP; MenSCs 7.5×10^5 cells/mice intra-peritoneal, Enrofloxacin 5 mg/kg
Description: (§1) In vivo studies were performed at the Universidad de los Andes-Cells for Cells Animal Facility (Santiago, Chile) in accordance with the institutional guidelines for the care and use of laboratory animals in research, revised and approved by the Institutional Ethical Committee for animal experimentation. C57BL6/j mice (8 to 12 weeks old; Jackson Laboratories, Bar Harbor, Me., USA) received ad libitum access to food and water during the whole experimental procedure. CLP-induced sepsis was performed as described previously (Rittirsch D et al., Immunodesign of experimental sepsis by cecal ligation and puncture. Nat Protoc. 2009) with some modifications. Briefly, mice were anesthetized with inhaled Sevofluorane (Baxter, Guayama, Puerto Rico) by using an anesthetic vaporizer. […]
(§2) Three hours after CLP-induced sepsis, mice were randomized and distributed into different experimental groups to receive single injections of saline (vehicle) (n=16), antibiotics (AB) (n=22), MenSCs (n=21), MenSCs+AB (n=22), MenSC CM (n=16), or MenSC CM+AB (n=22). […] For Kaplan-Meier survival curves, animals were assessed after CLP-induced sepsis every 12 hours for 4 days. […]
Data are expressed as mean±standard error. […]

CLP-induced sepsis [2] = experiment: Bacterial numbers in blood, peritoneal cavity and spleen in CLP-induced sepsis; conditions: 24 hours post-CLP, in comparison with saline group, P≤0.05
Description: as §1, with “vaporizer. After a 1-cm incision was performed, the cecum was exposed and ligated in the middle portion with 5-0 dafilon suture (Braun, Rubi, Spain), punctured once with an 18-gauge needle (in order to induce high-grade sepsis), and returned to the peritoneal cavity. The abdominal incision was sutured with catgut 5-0 (Braun, Bogota, Colombia), and the skin was closed with Histoacryl (Braun).” for “vaporizer.”
Total blood, peritoneal fluid, and homogenized spleen in sterile saline were plated in a 10-fold dilution on blood agar plates and incubated at 37° C. overnight, and the number of CFUs was determined.

CLP-induced sepsis [3] = experiment: Blood biochemical analysis in CLP mice; conditions: serum 24 hours post-surgery; sham 47.67±3.18, saline 90±21.47
Description: as §1, with “modifications.” for “modifications. Briefly, mice were anesthetized with inhaled Sevofluorane (Baxter, Guayama, Puerto Rico) by using an anesthetic vaporizer.”
as §2
Plasma levels of blood urea nitrogen (BUN), bilirubin, alanine aminotransferase (ALT), aspartate aminotransferase (AST), alkaline phosphatase (ALP), albumin, amylase, and glucose were evaluated by using the Piccolo Xpress™ Chemistry Analyzer (Abaxis, Union City, Calif., USA) in accordance with the instructions of the manufacturer. […]

CLP-induced sepsis [4] = experiment: Cytokine multiplex array evaluation in CLP mice; conditions: 40 hours post-CLP, P≤0.05
Description: as §1
The levels of inflammatory cytokines-monocyte chemoattractant protein-1 (MCP-1), TNF-α, IL-6, and […]—in CLP mice serum samples were determined by using a commercial BD™ Cytometric Bead Array Mouse Inflammation Kit (BD Biosciences Pharmingen, San Diego, Calif., USA) in accordance with the instructions of the manufacturer. Analysis was carried out by flow cytometry, and the concentration (in picograms per milliliter) was determined by using FCAP Array software (BD Biosciences). The parameters were determined 24 and 40 hours after CLP surgery.

Compound: CCN1CCN(c2cc3c(cc2F)c(=O)c(C(=O)O)cn3C2CC2)CC1 [AB, Enrofloxacin]
- survival rate (CLP-induced sepsis [1]): 73%
- CFU counts in peritoneal lavage (CLP-induced sepsis [2]): decreased
- alkaline phosphatase (ALP) concentration (CLP-induced sepsis [3]): 74.25±12.03 U/l
- IL-6 serum levels (CLP-induced sepsis [4]; in comparison with saline group): decreased
- levels of IL-10 (CLP-induced sepsis [4]; in comparison with untreated mice): reduction
